Results taken from ChEMBL document CHEMBL3885861, “Open TG-GATES”.

Species on record: Rattus norvegicus
Test: Open TG-GATES - Regimen: Single
Assay type: toxicity, organism-based, Sprague-Dawley
Design: regimen Single, gender Male, age 6 weeks
Conditions: in vivo, po, route gavage; for APTT / Bas / Eos / Fbg / Hb / Ht / Lym / MCH / MCHC / MCV / Mono / Neu / PT / Plat / RBC / Ret / WBC: tissue Blood; for KIDNEY_L / KIDNEY_R / KIDNEY_TOTAL: tissue Kidney; for LIVER: tissue Liver
[1] = 30 mg/kg, 24 h, tissue Plasma, dose level Middle
[2] = 100 mg/kg, 3 h, dose level High
[3] = 100 mg/kg, 3 h, tissue Plasma, dose level High
[4] = 100 mg/kg, 6 h, dose level High
[5] = 100 mg/kg, 6 h, tissue Plasma, dose level High
[6] = 100 mg/kg, 9 h, dose level High
[7] = 100 mg/kg, 9 h, tissue Plasma, dose level High
[8] = 100 mg/kg, 24 h, dose level High
[9] = 100 mg/kg, 24 h, tissue Plasma, dose level High

CC(=O)N1CCN(c2ccc(OCC3COC(Cn4ccnc4)(c4ccc(Cl)cc4Cl)O3)cc2)CC1 (stereo unspecified) [KETOCONAZOLE]
TG [1]: 102.2 mg/dL | TP [1]: 5.5 g/dL | gamma-GTP [1]: 1.4 IU/L | TERMINAL_BW [2]: 205.8 g | APTT [2]: 21.1 s | Bas [2]: 0% | Eos [2]: 0.8% | Fbg [2]: 280.8 mg/dL | Hb [2]: 13 g/dL | Ht [2]: 38.6% | Lym [2]: 81.4% | MCH [2]: 21.1 pg | MCHC [2]: 33.5% | MCV [2]: 62.9 fL | Mono [2]: 1.8% | Neu [2]: 15.2% | PT [2]: 16.9 s | Plat [2]: 125.7 x10_4/uL | RBC [2]: 615.2 x10_4/ul | Ret [2]: 8.6% | WBC [2]: 103.8 x10_2/uL | KIDNEY_L [2]: 1 g | KIDNEY_R [2]: 1 g | KIDNEY_TOTAL [2]: 1.9 g | LIVER [2]: 9.5 g | ALP [3]: 1893.6 IU/L | AST [3]: 73.6 IU/L | BUN [3]: 11.6 mg/dL | CRE [3]: 0.1 mg/dL | Ca [3]: 10.8 mg/dL | Cl [3]: 104.6 meq/L | DBIL [3]: 0 mg/dL | GLC [3]: 190.8 mg/dL | IP [3]: 9.2 mg/dL | LDH [3]: 182.4 IU/L | Na [3]: 140.4 meq/L | PL [3]: 151.8 mg/dL | RALB [3]: 2.9 g/dL | TBIL [3]: 0.016 mg/dL | TC [3]: 85 mg/dL | TG [3]: 59.4 mg/dL | TP [3]: 5.3 g/dL | gamma-GTP [3]: 1 IU/L | TERMINAL_BW [4]: 197.9 g | APTT [4]: 21.5 s | Bas [4]: 0% | Eos [4]: 0.6% | Fbg [4]: 290.8 mg/dL | Hb [4]: 13.4 g/dL | Ht [4]: 39.8% | Lym [4]: 80.4% | MCH [4]: 21.4 pg | MCV [4]: 63.6 fL | Mono [4]: 2% | Neu [4]: 15% | PT [4]: 16.6 s | Plat [4]: 127.9 x10_4/uL | RBC [4]: 625.8 x10_4/ul | Ret [4]: 7.5% | WBC [4]: 69 x10_2/uL | KIDNEY_L [4]: 0.9 g | KIDNEY_R [4]: 0.9 g | KIDNEY_TOTAL [4]: 1.8 g | LIVER [4]: 8.7 g | ALP [5]: 1551.6 IU/L | AST [5]: 68.8 IU/L | BUN [5]: 8.8 mg/dL | CRE [5]: 0.2 mg/dL | Ca [5]: 10.9 mg/dL | Cl [5]: 105.2 meq/L | DBIL [5]: 0 mg/dL | GLC [5]: 191.2 mg/dL | IP [5]: 9.9 mg/dL | LDH [5]: 257.2 IU/L | Na [5]: 141.4 meq/L | PL [5]: 142.8 mg/dL | RALB [5]: 3 g/dL | TBIL [5]: 0.02 mg/dL | TC [5]: 74.2 mg/dL | TG [5]: 94.2 mg/dL | TP [5]: 5.4 g/dL | gamma-GTP [5]: 1 IU/L | TERMINAL_BW [6]: 199.2 g | APTT [6]: 20.8 s | Bas [6]: 0% | Eos [6]: 1% | Fbg [6]: 298 mg/dL | Ht [6]: 38.7% | Lym [6]: 80.6% | MCH [6]: 21.2 pg | MCV [6]: 62.9 fL | Mono [6]: 1.6% | Neu [6]: 15.8% | PT [6]: 16.9 s | Plat [6]: 124.7 x10_4/uL | RBC [6]: 615.4 x10_4/ul | Ret [6]: 8.1% | WBC [6]: 80.7 x10_2/uL | KIDNEY_L [6]: 0.9 g | KIDNEY_R [6]: 0.9 g | KIDNEY_TOTAL [6]: 1.8 g | LIVER [6]: 8.1 g | ALP [7]: 1393.4 IU/L | AST [7]: 63.2 IU/L | BUN [7]: 7.4 mg/dL | CRE [7]: 0.2 mg/dL | Ca [7]: 10.7 mg/dL | Cl [7]: 106 meq/L | DBIL [7]: 0 mg/dL | GLC [7]: 198 mg/dL | IP [7]: 9.3 mg/dL | LDH [7]: 179 IU/L | Na [7]: 142.2 meq/L | PL [7]: 137.4 mg/dL | RALB [7]: 2.9 g/dL | TBIL [7]: 0.02 mg/dL | TC [7]: 73.4 mg/dL | TG [7]: 55.2 mg/dL | TP [7]: 5.3 g/dL | gamma-GTP [7]: 1.2 IU/L | TERMINAL_BW [8]: 216.3 g | APTT [8]: 21.5 s | Bas [8]: 0% | Eos [8]: 0.4% | Fbg [8]: 304.2 mg/dL | Hb [8]: 13.3 g/dL | Ht [8]: 39.9% | Lym [8]: 74.8% | MCH [8]: 21.4 pg | MCHC [8]: 33.2% | MCV [8]: 64.4 fL | Mono [8]: 2% | Neu [8]: 21.4% | PT [8]: 16.4 s | Plat [8]: 127 x10_4/uL | RBC [8]: 621 x10_4/ul | Ret [8]: 8% | WBC [8]: 71.7 x10_2/uL | KIDNEY_L [8]: 1 g | KIDNEY_R [8]: 1 g | KIDNEY_TOTAL [8]: 2 g | LIVER [8]: 11 g | ALP [9]: 1882.6 IU/L | ALT [9]: 55.8 IU/L | AST [9]: 89.8 IU/L | BUN [9]: 15.8 mg/dL | CRE [9]: 0.2 mg/dL | Ca [9]: 10.7 mg/dL | Cl [9]: 105.4 meq/L | DBIL [9]: 0 mg/dL | GLC [9]: 180.4 mg/dL | IP [9]: 8.4 mg/dL | LDH [9]: 226.4 IU/L | Na [9]: 142.2 meq/L | PL [9]: 147 mg/dL | RALB [9]: 2.9 g/dL | TBIL [9]: 0.004 mg/dL | TC [9]: 79.4 mg/dL | TG [9]: 88.6 mg/dL | TP [9]: 5.4 g/dL | gamma-GTP [9]: 1 IU/L
